Measured values reported in the NIST ThermoML archive (doi:10.1016/j.fluid.2013.08.029).
± gives the expanded uncertainty stated by the source.

Assay: xn = mol fraction of the nth substance listed
Settings: 101 kPa, Liquid; for mass density: Vibrating tube method; for speed of sound: Sing-around technique in a fixed-path interferometer

CCCCn1cc[n+](C)c1C.F[B-](F)(F)F [1-butyl-2,3-dimethylimidazolium tetrafluoroborate] + OCCO
Settings | mass density, 303.15 K [kg/m3] | mass density, 308.15 K [kg/m3] | mass density, 313.15 K [kg/m3] | mass density, 318.15 K [kg/m3] | speed of sound, 308.15 K [m/s] | speed of sound, 313.15 K [m/s] | speed of sound, 318.15 K [m/s]
x1 = 0.0698 | 1127.3 ± 0.17 | 1123.65 ± 0.16 | 1120 ± 0.16 | 1116.33 ± 0.16 | 1625.3 ± 2.2 | 1613.8 ± 2.2 | 1602.5 ± 2.2
x1 = 0.1114 | 1136.79 ± 0.17 | 1133.19 ± 0.17 | 1129.53 ± 0.16 | 1125.84 ± 0.17 | 1619.4 ± 2.2 | 1607.9 ± 2.2 | 1596.2 ± 2.2
x1 = 0.219 | 1151.47 ± 0.17 | 1147.66 ± 0.17 | 1143.87 ± 0.17 | 1140.07 ± 0.17 | 1612.2 ± 2.2 | 1600 ± 2.2 | 1587.9 ± 2.2
x1 = 0.3157 | 1158.29 ± 0.16 | 1154.93 ± 0.16 | 1150.95 ± 0.16 | 1147.06 ± 0.16 | 1607.7 ± 2.2 | 1595.7 ± 2.2 | 1584 ± 2.2
x1 = 0.4167 | 1162.58 ± 0.16 | 1158.22 ± 0.16 | 1154.7 ± 0.16 | 1150.9 ± 0.16 | 1604.7 ± 2.2 | 1592.9 ± 2.2 | 1581.2 ± 2.2
x1 = 0.5153 | 1166.36 ± 0.16 | 1161.45 ± 0.16 | 1158.26 ± 0.16 | 1154.9 ± 0.15 | 1604.2 ± 2.2 | 1592.8 ± 2.2 | 1581.6 ± 2.2
x1 = 0.6157 | 1171.53 ± 0.16 | 1167.01 ± 0.16 | 1163.8 ± 0.15 | 1160.61 ± 0.15 | 1605 ± 2.2 | 1594 ± 2.2 | 1582.8 ± 2.1
x1 = 0.7042 | 1176.14 ± 0.15 | 1172.28 ± 0.15 | 1169.14 ± 0.15 | 1165.8 ± 0.15 | 1607.4 ± 2.1 | 1596.4 ± 2.1 | 1585.1 ± 2.1
x1 = 0.8028 | 1180.73 ± 0.15 | 1177.55 ± 0.15 | 1174.46 ± 0.15 | 1171.11 ± 0.15 | 1610.5 ± 2.1 | 1598.9 ± 2.1 | 1587.7 ± 2.1
x1 = 0.9065 | 1185.16 ± 0.15 | 1182.72 ± 0.15 | 1179.21 ± 0.15 | 1175.65 ± 0.15 | 1613.7 ± 2.1 | 1602 ± 2.1 | 1590.8 ± 2.1
